≈ marks a conversion by molar mass, not a printed value.
How the values were obtained:
[1] = tested on: southern army worm (SAW) Spodoptera eridania; experiment: spray applied to SAW; assay type: in vivo
Procedure: When a spray containing 2.0 mg/ml purified Justicidin P in water was applied to SAW, 85% feeding inhibition but 0% kill was observed.

[2] = tested on: Aedes egypti larvae; experiment: insecticidal activity against larvae of A. egypti in water; assay type: in vivo; details: Aedes; larvae of A. egypti in H2O; read-out: EC50 (effective kill concentration for 50% of the experimental larvae)
Procedure: (§1) The insecticidal activity of the crude acetone/water extracts of Justicia extensa, prepared according to the isolation procedure described previously, was tested against laboratory cultures of the mosquito species Aedes egypti (Linnaeus) and southern army worm (SAW) Spodoptera eridania (Cramer). Extracts of leaves, branches and roots were employed in each test.
In tests against larvae of A. egypti, 10 mg of the crude plant extract was thoroughly dispersed in 20 ml of water in a test tube to which 10 first instar larvae were added.

[3] = tested on: Aedes egypti larvae; experiment: as above; assay type: in vivo; details: lower concentrations
[4] = tested on: Herpes Type 2-Alabama strain; experiment: plaque formation inhibition, Herpes Type 2 in HeLa cells; assay type: cell-based
[5] = tested on: IMR-90 cells; details: all concentrations tested
[6] = tested on: Spodoptera eridania; experiment: insecticidal and feeding inhibition test against southern army worm in pinto bean diet; assay type: in vivo
Procedure: as §1

[7] = tested on: A/JAX inbred mice; experiment: in vivo oral toxicity in A/JAX inbred mice; details: orally, 200 and 100 mg/kg
Procedure: (§2) In vivo toxicity studies of natural and synthetic Justicidin P produced mixed results. […] However, natural and synthetic Justicidin P were toxic to A/JAX inbred mice when administered orally at dosages of 200 and 100 mg/kg.

[8] = tested on: Herpes Type 1-strain VR3; experiment: plaque formation inhibition, Herpes Type 1 in HeLa cells; assay type: cell-based
[9] = tested on: HeLa cells; assay type: cell-based; details: 64 μg/ml to 1 μg/ml
[10] = in vitro; details: human, diploid fibroblast cells
[11] = tested on: out-bred mice; experiment: in vivo oral toxicity in out-bred mice; details: orally, up to about 324 mg/kg
Procedure: as §2

[12] = tested on: Human Rhino Virus (HRV-2); experiment: inhibition of HRV-2 in HeLa cells; assay type: cell-based, Human rhinovirus HRV-2; details: Rhinovirus A, 200 PFU
[13] = in vitro toxicity in MDCK cells; assay type: cell-based, Canine; details: dog
Procedure: In vitro toxicity studies of natural Justicidin P were conducted using Madin-Darby Canine Kidney (MDCK) cells and test concentrations ranging between 0.01 and 0.56 μg/ml. In these tests, Justicidin P was suspended in MEM, diluted, and suspended in a purified agar solution. Duplicate plates containing MDCK cell layers were washed twice with HBSS, overlayed with the test compound-agar solutions, and incubated at 34° C., 5% CO2 for 72 hours. At the conclusion of the incubation period, cell layers were stained with 1% crystal violet, rinsed with tap water, dried and visually inspected to determine toxicity.

## COc1cc2c(OC)c3c(c(-c4ccc5c(c4)OCO5)c2cc1OC)C(=O)OC3OC (single isomer, unassigned) [Justicidin P (natural)]
[1]; Spodoptera eridania, topical, read-out: kill
  mortality at 2000 µg/mL: 0%
[1]; spray containing 2.0 mg/ml in water
  feeding inhibition: 85%
[2]
  LC50: 0.05 mg/L (≈ 0.118 µM)
[3]
  insecticidal activity of purified fractions: insecticidal component of the J. extensa extracts
[4]; 0.004 μg/ml, HSV-2, HeLa
  Mean Plaques/Plate: 136
[4]; 0.016 μg/ml, HSV-2, HeLa
  Mean Plaques/Plate: 114
[4]; 0.063 μg/ml, HSV-2, HeLa
  Mean Plaques/Plate: 60
[4]; 0.25 μg/ml, HSV-2, HeLa
  Mean Plaques/Plate: 7
[4]; HeLa cells
  antiviral activity against Herpes Type 2: demonstrated antiviral activity
[4]; Human alphaherpesvirus 2, 0.004 μg/ml, HSV-2, HeLa
  inhibition at 0.004 µg/mL: 14%
[4]; Human alphaherpesvirus 2, 0.016 μg/ml, HSV-2, HeLa
  inhibition at 0.016 µg/mL: 28%
[4]; Human alphaherpesvirus 2, 0.063 μg/ml, HSV-2, HeLa
  inhibition at 0.063 µg/mL: 62%
[4]; Human alphaherpesvirus 2, 0.25 μg/ml, HSV-2, HeLa
  inhibition at 0.25 µg/mL: 96%
[5]
  cytotoxicity: exhibited cytotoxicity at all concentrations tested
[6]; 1 μg/gm in pinto bean diet
  feeding inhibition: 62%
[6]; 10 μg/gm in pinto bean diet
  feeding inhibition: 77%
[6]; 100 μg/gm in pinto bean diet
  feeding inhibition: 85%
[6]; Spodoptera eridania, 1 μg/gm in pinto bean diet, read-out: kill
  mortality at 1 µg/g: 20%
[6]; Spodoptera eridania, 10 μg/gm in pinto bean diet, read-out: kill
  mortality at 10 µg/g: 10%
[6]; Spodoptera eridania, 100 μg/gm in pinto bean diet, read-out: kill
  mortality at 100 µg/g: 60%
[7]
  in vivo toxicity: toxic
[8]; 0.004 μg/ml, HSV-1, HeLa
  Mean Plaques/Plate: 134
[8]; 0.016 μg/ml, HSV-1, HeLa
  Mean Plaques/Plate: 117
[8]; 0.063 μg/ml, HSV-1, HeLa
  Mean Plaques/Plate: 122
[8]; 0.25 μg/ml, HSV-1, HeLa
  Mean Plaques/Plate: 87
[8]; HeLa cells
  antiviral activity against Herpes Type 1: demonstrated antiviral activity
[8]; Human alphaherpesvirus 1, 0.004 μg/ml, HSV-1, HeLa
  inhibition at 0.004 µg/mL: 0%
[8]; Human alphaherpesvirus 1, 0.016 μg/ml, HSV-1, HeLa
  inhibition at 0.016 µg/mL: 6%
[8]; Human alphaherpesvirus 1, 0.063 μg/ml, HSV-1, HeLa
  inhibition at 0.063 µg/mL: 2%
[8]; Human alphaherpesvirus 1, 0.25 μg/ml, HSV-1, HeLa
  inhibition at 0.25 µg/mL: 31%
[9]
  cytotoxicity: severe cytotoxicity
[10]
  selectivity ratio: 10 to 60
[11]
  in vivo toxicity: no toxicity was observed
[12]; HRV2, 0.016 μg/ml
  inhibition at 0.016 µg/mL: 107%
[12]; HRV2, 0.08 μg/ml
  inhibition at 0.08 µg/mL: ≥ 100%
[12]; HRV2, 0.4 μg/ml
  inhibition at 0.4 µg/mL: ≥ 100%
[12]; HRV2, 2 μg/ml
  inhibition at 2 µg/mL: ≥ 100%
[12]; HRV2, 10 μg/ml
  inhibition at 10 µg/mL: 64%
[13]; 0.01 μg/ml
  cytotoxicity at 72 h: 1%
[13]; 0.02 μg/ml
  cytotoxicity at 72 h: 5%
[13]; 0.05 μg/ml
  cytotoxicity at 72 h: 15%
[13]; 0.11 μg/ml
  cytotoxicity at 72 h: 30%
[13]; 0.25 μg/ml
  cytotoxicity at 72 h: 40%
[13]; 0.56 μg/ml
  cytotoxicity at 72 h: 70%

Source: patent US4486445A, “Justicidin insecticidal and antiviral compounds” (E. I. Du Pont de Nemours and Company, priority 1983, dated 1984)
